In patent publication US20070185084A1, “COMPOSITIONS OF AN ANTICONVULSANT AND METHODS OF USING THE SAME FOR REVERSING WEIGHT GAIN” (Orexigen Therapeutics, Inc., priority 2006, published 2007):
“Also recorded” adds a separate entry of the source. Like-named read-outs stand apart in the source and are kept apart here.

Columns and labels:
[1] = Example 10: co-treatment with zonisamide in rodent model of olanzapine-induced weight gain (body weight, food intake); format: in vivo, Sprague-Dawley rats
Procedure: Female Sprague-Dawley rats, weighing about 235 grams at the start of the experiment were used. They were trained to sham injections, using the zonisamide vehicle for 2 weeks before the study commenced. Under isoflurane anesthesia, Alzet osmotic minipumps (2 ml2) were implanted subcutaneously, between the shoulder blades. The rats were subsequently returned to their home cages after recovery. The minipumps delivered 5 μL per hour for 14 days. […] The animals were housed individually and supplied with standard laboratory chow. Food consumed and animal weights were recorded every days. […] Rats were allowed to recover after pump implantation, and then received twice daily injections of zonisamide 26 mg/kg.

[2] = Example 11: zonisamide started one week after olanzapine pump implantation in rodent model of olanzapine-induced weight gain; format: in vivo, rats
Procedure: Female Sprague-Dawley rats, weighing about 235 grams at the start of the experiment were used. They were trained to sham injections, using the zonisamide vehicle for 2 weeks before the study commenced. Under isoflurane anesthesia, Alzet osmotic minipumps (2 ml2) were implanted subcutaneously, between the shoulder blades. The rats were subsequently returned to their home cages after recovery. The minipumps delivered 5 μL per hour for 14 days. Olanzapine was dissolved in 1.5% lactic acid in dH2O. Zonisamide was dissolved in 10% DMSO, 13.4% EtOH, 20.1% PPG, and […]. Olanzapine dose was 1.75 mg/day via the minipump. The animals were housed individually and supplied with standard laboratory chow. Food consumed and animal weights were recorded every days. There were 5 animals in the control (vehicle) group, 5 animals in the zonisamide only group, 4 animals in the olanzapine only group, and 6 animals in the olanzapine+zonisamide group.
Rats were allowed to recover after pump implantation, and then received twice daily injections of zonisamide 26 mg/kg. Their food intake and body weight were calculated daily for 15 days.
The protocol used was the same as described in Example 12, with the exception that the treatment with zonisamide began one week after implantation of the olanzapine osmotic pumps, and food intake and body weight were calculated daily for 10 days.

[3] = Example 14 case study: bupropion and zonisamide added to olanzapine and valproate; format: in vivo, human
Procedure: At this point, zonisamide was added to their medication regimen at 100 mg/day and the dose was increased to 200 mg/day after two weeks.

[4] = Example 13 case study: zonisamide in patient with weight gain on paroxetine and risperidone; format: in vivo, human
Procedure: They were therefore started on zonisamide 100 mg, increased to 200 mg. […] The dose was then increased to 300 mg and then to 600 mg.

[5] = tested on: Proopiomelanocortin (POMC) neurons; assay: Electrophysiology: action current frequency of POMC neurons in brain slices, loose cell attached patch; format: cell-based, POMC-EGFP mice; details: for frequency of action currents (activity) of POMC neurons: zonisamide 10 μM, FIG. 1
Procedure: The electrophysiological activity of Proopiomelanocortin (POMC) neurons in brain slices from POMC-EGFP mice was recorded. The POMC neurons in these mice are identified by the expression of green fluorescent protein (EGFP) in these, and only these, cells. The frequency of action potentials in these neurons were recorded using standard electrophysiological techniques. In particular, loose cell attached patch configuration is used to determine action current frequency, whilst minimally disturbing the cells.
The basal activity was recorded, and then olanzapine (100 nM) was added to the tissue bath to determine the effect of olanzapine on the activity of POMC neurons. […] Then the effect of zonisamide on the reduction in activity caused by […] was tested by adding olanzapine plus zonisamide (10 μM) to the bath.

[6] = cited from earlier work
[7] = Example 12 case study: zonisamide added to clonazepam, fluoxetine and lamotrogine, bipolar patient; format: in vivo, human; details: zonisamide 100 mg qD added to clonazepam, fluoxetine, lamotrogine; person
Procedure: A person having biopolar disorder, Type I, had been treated for just over year by their psychiatrist using clonazepam 1 mg qHS, fluoxetine 20 mg qd, and lamotrogine 300 mg qD. One particular complaint was that they had “constant thoughts of eating”. Their psychiatrist started them on zonisamide 100 mg qD. […] The dose was continued and despite multiple stressors at home, they continued to do well on the treatment regimen.

[8] = Day 1.00, rats, olanzapine 1.75 mg/day minipump, zonisamide 26 mg/kg twice daily
[9] = Day 7.00, rats, zonisamide begun one week after olanzapine pump implantation
[10] = zonisamide added to olanzapine, valproate, bupropion

Cc1cc2c(s1)Nc1ccccc1N=C2N1CCN(C)CC1 [Olanzapine, olanzapine]
Change in Food Intake Post Pump Implant, Mean [1, 8]: 16.56
Cumulative Change in Body Weight, Mean [1, 8]: 7.44
Change in Food Intake Post Pump Implant, Mean ([1]; Day 2.00): 39.82
Cumulative Change in Body Weight, Mean ([1]; Day 4.00): 21.04
Change in Food Intake Post Pump Implant, Mean ([1]; Day 5.00): 62.30
Cumulative Change in Body Weight, Mean ([1]; Day 5.00): 19.22
Change in Food Intake Post Pump Implant, Mean ([1]; Day 6.00): 86.14
Cumulative Change in Body Weight, Mean ([1]; Day 6.00): 20.56
Change in Food Intake Post Pump Implant, Mean ([1]; Day 7.00): 105.74
Cumulative Change in Body Weight, Mean ([1]; Day 7.00): 30.88
Change in Food Intake Post Pump Implant, Mean ([1]; Day 8.00): 119.30
Cumulative Change in Body Weight, Mean ([1]; Day 8.00): 27.56
Change in Food Intake Post Pump Implant, Mean ([1]; Day 9.00): 144.98
Cumulative Change in Body Weight, Mean ([1]; Day 9.00): 32.94
Change in Food Intake Post Pump Implant, Mean ([1]; Day 10.00): 161.16
Cumulative Change in Body Weight, Mean ([1]; Day 10.00): 34.98
Change in Food Intake Post Pump Implant, Mean ([1]; Day 11.00): 180.96
Cumulative Change in Body Weight, Mean ([1]; Day 11.00): 33.40
Change in Food Intake Post Pump Implant, Mean ([1]; Day 12.00): 201.42
Cumulative Change in Body Weight, Mean ([1]; Day 12.00): 40.76
Change in Food Intake Post Pump Implant, Mean ([1]; Day 13.00): 224.38
Cumulative Change in Body Weight, Mean ([1]; Day 13.00): 38.84
Change in Food Intake Post Pump Implant, Mean ([1]; Day 14.00): 241.48
Cumulative Change in Body Weight, Mean ([1]; Day 14.00): 43.28
Cumulative Change in Body Weight, Mean ([1]; Day 15.00): 41.64
Cumulative Change in Body Weiglt Post-Pump Implant, Mean [2, 9]: −0.46
Cumulative Change in Food Intake Post-Pump Implant, Mean [2, 9]: 13.39
Cumulative Change in Body Weiglt Post-Pump Implant, Mean ([2]; Day 8.00): −11.55
Cumulative Change in Food Intake Post-Pump Implant, Mean ([2]; Day 8.00): 18.36
Cumulative Change in Body Weiglt Post-Pump Implant, Mean ([2]; Day 9.00): 4.28
Cumulative Change in Food Intake Post-Pump Implant, Mean ([2]; Day 9.00): 57.46
Cumulative Change in Body Weiglt Post-Pump Implant, Mean ([2]; Day 10.00): 11.88
Cumulative Change in Food Intake Post-Pump Implant, Mean ([2]; Day 10.00): 124.58
Cumulative Change in Body Weiglt Post-Pump Implant, Mean ([2]; Day 11.00): 13.48
Cumulative Change in Food Intake Post-Pump Implant, Mean ([2]; Day 11.00): 145.5
Cumulative Change in Body Weiglt Post-Pump Implant, Mean ([2]; Day 12.00): 11.8
Cumulative Change in Food Intake Post-Pump Implant, Mean ([2]; Day 12.00): 163.6
Cumulative Change in Body Weiglt Post-Pump Implant, Mean ([2]; Day 13.00): 15.55
Cumulative Change in Food Intake Post-Pump Implant, Mean ([2]; Day 13.00): 181.05
Cumulative Change in Body Weiglt Post-Pump Implant, Mean ([2]; Day 14.00): 20.4
Cumulative Change in Food Intake Post-Pump Implant, Mean ([2]; Day 14.00): 200.9
Cumulative Change in Body Weiglt Post-Pump Implant, Mean ([2]; Day 15.00): 17.98
Cumulative Change in Food Intake Post-Pump Implant, Mean ([2]; Day 15.00): 218.2
Cumulative Change in Body Weiglt Post-Pump Implant, Mean ([2]; Day 16.00): 21.22
Cumulative Change in Food Intake Post-Pump Implant, Mean ([2]; Day 16.00): 236.95

CC(NC(C)(C)C)C(=O)c1cccc(Cl)c1 (stereo not shown) [bupropion]
weight lost ([3]; bupropion 150 mg/day added to olanzapine and valproate, after 6 months): 23.6 lbs
adverse effect reported ([3]; bupropion dose raised to 300 mg/day): feeling hyperactive
weight regained ([3]; while continuing bupropion, over the next 10 months): 10.6 lbs
weight loss ([4]; trial of bupropion alone): did not cause significant weight loss

NS(=O)(=O)Cc1noc2ccccc12 [Zonisamide, zonisamide]
weight lost ([3]; zonisamide 100 mg/day, 200 mg/day after two weeks, added to regimen, over the next 4 months): 15 lbs
adverse effects reported [3, 10]: no adverse effects
bipolar disorder symptoms [3, 10]: remained free of bipolar disorder symptoms
Change in Food Intake Post Pump Implant, Mean [1, 8]: 12.48
Cumulative Change in Body Weight, Mean [1, 8]: 9.74
Change in Food Intake Post Pump Implant, Mean ([1]; Day 2.00): 30.10
Cumulative Change in Body Weight, Mean ([1]; Day 4.00): 20.24
Change in Food Intake Post Pump Implant, Mean ([1]; Day 5.00): 46.02
Cumulative Change in Body Weight, Mean ([1]; Day 5.00): 17.60
Change in Food Intake Post Pump Implant, Mean ([1]; Day 6.00): 58.24
Cumulative Change in Body Weight, Mean ([1]; Day 6.00): 19.34
Change in Food Intake Post Pump Implant, Mean ([1]; Day 7.00): 72.10
Cumulative Change in Body Weight, Mean ([1]; Day 7.00): 20.18
Change in Food Intake Post Pump Implant, Mean ([1]; Day 8.00): 86.88
Cumulative Change in Body Weight, Mean ([1]; Day 8.00): 17.32
Change in Food Intake Post Pump Implant, Mean ([1]; Day 9.00): 104.86
Cumulative Change in Body Weight, Mean ([1]; Day 9.00): 13.66
Change in Food Intake Post Pump Implant, Mean ([1]; Day 10.00): 123.66
Cumulative Change in Body Weight, Mean ([1]; Day 10.00): 14.62
Change in Food Intake Post Pump Implant, Mean ([1]; Day 11.00): 140.40
Cumulative Change in Body Weight, Mean ([1]; Day 11.00): 16.46
Change in Food Intake Post Pump Implant, Mean ([1]; Day 12.00): 160.36
Cumulative Change in Body Weight, Mean ([1]; Day 12.00): 21.08
Change in Food Intake Post Pump Implant, Mean ([1]; Day 13.00): 177.70
Cumulative Change in Body Weight, Mean ([1]; Day 13.00): 24.26
Change in Food Intake Post Pump Implant, Mean ([1]; Day 14.00): 186.25
Cumulative Change in Body Weight, Mean ([1]; Day 14.00): 27.52
Cumulative Change in Body Weight, Mean ([1]; Day 15.00): 25.70
effect on the weight gain associated with olanzapine ([1]; zonisamide added to concomitant olanzapine treatment, rats): decrease the weight gain associated with olanzapine
activity of POMC neurons inhibited by olanzapine ([5]; olanzapine plus zonisamide (10 μM) in the bath, FIG. 3): reversed the inhibition of POMC neurons
frequency of action currents (activity) of POMC neurons [5]: reversibly increased the activity of POMC neurons
frequency of action currents (activity) of POMC neurons ([5]; listed as zonisamide): increases the activity of POMC neurons
psychiatric symptoms ([4]; on zonisamide): improved
weight lost ([4]; zonisamide 100 mg, increased to 200 mg, in 3 weeks): 12 pounds
weight ([4]; zonisamide increased to 300 mg and then 600 mg, in 5 months): returned to baseline
Cumulative Change in Body Weiglt Post-Pump Implant, Mean [2, 9]: −1.73
Cumulative Change in Food Intake Post-Pump Implant, Mean [2, 9]: 13.15
Cumulative Change in Body Weiglt Post-Pump Implant, Mean ([2]; Day 8.00): −11.38
Cumulative Change in Food Intake Post-Pump Implant, Mean ([2]; Day 8.00): 18.62
Cumulative Change in Body Weiglt Post-Pump Implant, Mean ([2]; Day 9.00): −1.28
Cumulative Change in Food Intake Post-Pump Implant, Mean ([2]; Day 9.00): 46.87
Cumulative Change in Body Weiglt Post-Pump Implant, Mean ([2]; Day 10.00): 5.8
Cumulative Change in Food Intake Post-Pump Implant, Mean ([2]; Day 10.00): 101.08
Cumulative Change in Body Weiglt Post-Pump Implant, Mean ([2]; Day 11.00): 6.37
Cumulative Change in Food Intake Post-Pump Implant, Mean ([2]; Day 11.00): 116.93
Cumulative Change in Body Weiglt Post-Pump Implant, Mean ([2]; Day 12.00): 0.86
Cumulative Change in Food Intake Post-Pump Implant, Mean ([2]; Day 12.00): 126.64
Cumulative Change in Body Weiglt Post-Pump Implant, Mean ([2]; Day 13.00): −4.79
Cumulative Change in Food Intake Post-Pump Implant, Mean ([2]; Day 13.00): 133.95
Cumulative Change in Body Weiglt Post-Pump Implant, Mean ([2]; Day 14.00): −11.79
Cumulative Change in Food Intake Post-Pump Implant, Mean ([2]; Day 14.00): 141.09
Cumulative Change in Body Weiglt Post-Pump Implant, Mean ([2]; Day 15.00): −10.3
Cumulative Change in Food Intake Post-Pump Implant, Mean ([2]; Day 15.00): 153.61
Cumulative Change in Body Weiglt Post-Pump Implant, Mean ([2]; Day 16.00): −9.37
Cumulative Change in Food Intake Post-Pump Implant, Mean ([2]; Day 16.00): 167.93
effect on olanzapine-induced weight gain ([2]; zonisamide one week after implantation of olanzapine pumps, rats): decrease the weight gain associated with olanzapine; also recorded: reversed olanzapine-induced weight gain
weight loss ([6]; patients presenting with primary obesity): significant weight loss
tolerability ([6]; versus placebo treatment): well tolerated
craving for food [7]: significantly reduced their craving for food
weight gain [7]: prevented weight gain
